Test systems include A549 NSCLC; EKVX NSCLC; HOP-92 NSCLC; HT29 colon; K-562 leukemia; M14 melanoma; NCI-H23 lung; NCI/ADR-RES ovarian; OVCAR-8 ovarian; RXF 393 renal; SN12C renal.
Test in all cases: DTP human tumour cell line panel, 48 h

SMILES strings stand for the structures.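 Dose response: 5 concentrations. Exposure: 48 h. Format: 96-well plates. Endpoint: linear interpolation; highest concentration if not reached. Definition used: TGI = concentration required for complete inhibition of growth.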

Take `C/C(=N/NC(=S)Nc1cccc(C)c1)c1ccccn1`: the TGI – broadly, the concentration giving total growth inhibition – worked out at 8.51 µM with A549 NSCLC; 2.3 µM in the experiment on EKVX NSCLC; 6.12 µM in the experiment with HOP-92 NSCLC; 2.39 µM with HT29 colon; 1.64 µM in the experiment on K-562 leukemia; 2.46 µM in the experiment on M14 melanoma. Moreover, the TGI with NCI-H23 lung came out at 9.92 µM; in the experiment on NCI/ADR-RES ovarian, 0.444 µM; in the experiment with OVCAR-8 ovarian, 2.33 µM; with RXF 393 renal it was 3.55 µM; in the experiment on SN12C renal, 6.61 µM.

As to `O=C1OC[C@@H]2Cc3c([nH]c4ccccc34)[C@@H](c3ccc(O)cc3)N12`, the TGI with A549 NSCLC was 75.8 µM; with EKVX NSCLC, greater than 100 µM; in the experiment with HOP-92 NSCLC, greater than 100 µM; in the experiment on HT29 colon it was 98.4 µM; in the experiment with K-562 leukemia, greater than 75.2 µM; in the experiment with M14 melanoma it was 54.7 µM. The TGI in the experiment with NCI-H23 lung was 54.6 µM; in the experiment on NCI/ADR-RES ovarian, greater than 100 µM; in the experiment on OVCAR-8 ovarian it was greater than 71.7 µM; with RXF 393 renal it was 64.3 µM; in the experiment on SN12C renal, greater than 89.7 µM.

On to `CCOP(=O)(OCC)/C(F)=C/c1ccccc1`, for which the TGI in the experiment with A549 NSCLC, in the experiment on EKVX NSCLC, with HOP-92 NSCLC, in the experiment with HT29 colon, in the experiment on K-562 leukemia and with M14 melanoma was greater than 100 µM in each case. In addition, the TGI with NCI-H23 lung, in the experiment with NCI/ADR-RES ovarian, in the experiment with OVCAR-8 ovarian, in the experiment with RXF 393 renal and with SN12C renal was greater than 100 µM in each case.

For the compound `NCCCC(N)C(=O)O` (configuration not stated), the TGI with A549 NSCLC, in the experiment with EKVX NSCLC, with HOP-92 NSCLC, in the experiment with HT29 colon, with K-562 leukemia and in the experiment with M14 melanoma was greater than 100 µM each time. The TGI with NCI-H23 lung, in the experiment on NCI/ADR-RES ovarian, in the experiment on OVCAR-8 ovarian, in the experiment on RXF 393 renal and in the experiment on SN12C renal was greater than 100 µM throughout.

In the case of `Cc1oc2nc(N(C)C)n3nnnc3c2c1C`, the TGI with A549 NSCLC, in the experiment with EKVX NSCLC, in the experiment on HOP-92 NSCLC, with HT29 colon, with K-562 leukemia and in the experiment with M14 melanoma was greater than 100 µM each time. Further, the TGI in the experiment with NCI-H23 lung, with NCI/ADR-RES ovarian, with OVCAR-8 ovarian, in the experiment with RXF 393 renal and in the experiment on SN12C renal was greater than 100 µM throughout.

On to `CCOC(=O)c1cnc2[nH]ccn2c1=O`, for which the TGI with A549 NSCLC, with EKVX NSCLC, in the experiment with HOP-92 NSCLC, with HT29 colon, in the experiment with K-562 leukemia and with M14 melanoma was greater than 10 µM each time. Besides, the TGI in the experiment on NCI-H23 lung, with NCI/ADR-RES ovarian, with OVCAR-8 ovarian, in the experiment on RXF 393 renal and with SN12C renal was greater than 10 µM in each case.

As for `O=C1C(Br)=Cc2c(Cl)sc(Cl)c21`, the TGI was greater than 72.9 µM with A549 NSCLC; 22.2 µM with EKVX NSCLC; 7 µM with HOP-92 NSCLC; 27.3 µM in the experiment with HT29 colon; 13.6 µM in the experiment with K-562 leukemia; 26.7 µM with M14 melanoma. Also, the TGI in the experiment with NCI-H23 lung is 30.6 µM; with NCI/ADR-RES ovarian it was greater than 100 µM; with OVCAR-8 ovarian, 33.3 µM; in the experiment with RXF 393 renal it was 6.17 µM; in the experiment on SN12C renal, 18.4 µM.

Turning to `C(=Nc1ccc(-c2nc3ccccc3s2)cc1)c1ccco1`, the TGI in the experiment on A549 NSCLC, in the experiment with EKVX NSCLC, with HOP-92 NSCLC, with HT29 colon, in the experiment with K-562 leukemia and in the experiment on M14 melanoma was greater than 100 µM each time. Besides, the TGI in the experiment with NCI-H23 lung, in the experiment on NCI/ADR-RES ovarian, in the experiment on OVCAR-8 ovarian, in the experiment with RXF 393 renal and in the experiment with SN12C renal was greater than 100 µM in each case.

On to `COc1ccc2c(c1)C(=O)c1ccccc1C2`, for which the TGI in the experiment on A549 NSCLC, in the experiment with EKVX NSCLC, with HOP-92 NSCLC, in the experiment on HT29 colon, in the experiment on K-562 leukemia and with M14 melanoma was greater than 100 µM throughout. The TGI with NCI-H23 lung was greater than 100 µM; in the experiment on NCI/ADR-RES ovarian it was greater than 100 µM; in the experiment with OVCAR-8 ovarian, greater than 100 µM; with RXF 393 renal it was 28.4 µM; in the experiment on SN12C renal, greater than 100 µM.

Take `Nc1ncnc2c1ncn2C(=O)NC12CC3CC(CC(C3)C1)C2`: the TGI in the experiment with A549 NSCLC, with EKVX NSCLC, with HOP-92 NSCLC, in the experiment with HT29 colon, in the experiment on K-562 leukemia and in the experiment with M14 melanoma was greater than 100 µM each time. Also, the TGI in the experiment on NCI-H23 lung, in the experiment on NCI/ADR-RES ovarian, with OVCAR-8 ovarian, in the experiment with RXF 393 renal and with SN12C renal was greater than 100 µM in each case.

As for `CCn1c(=O)c2c3cc(O)ccc3oc2c2ccc(O)cc21`, the TGI with A549 NSCLC was 86.9 µM; with EKVX NSCLC, 62.6 µM; with HOP-92 NSCLC, 80.3 µM; in the experiment with HT29 colon, 77.5 µM; in the experiment on K-562 leukemia it was greater than 100 µM; in the experiment on M14 melanoma, greater than 100 µM. The TGI in the experiment on NCI-H23 lung, in the experiment with NCI/ADR-RES ovarian, in the experiment on OVCAR-8 ovarian, in the experiment with RXF 393 renal and with SN12C renal was greater than 100 µM in each case.

Take `O=C1N[C@@H]2c3c(csc3Br)C(=O)[C@@H]2O1`: the TGI is greater than 100 µM in the experiment with A549 NSCLC; greater than 100 µM in the experiment on EKVX NSCLC; 59.3 µM in the experiment with HOP-92 NSCLC; greater than 100 µM in the experiment on HT29 colon; 53.4 µM in the experiment on K-562 leukemia; greater than 100 µM in the experiment with M14 melanoma. The TGI was greater than 100 µM in the experiment with NCI-H23 lung; greater than 100 µM with NCI/ADR-RES ovarian; 57.6 µM in the experiment on OVCAR-8 ovarian; 43.7 µM with RXF 393 renal; greater than 100 µM with SN12C renal.

These data come from PubChem BioAssay (NCI).
